According to patent US9815796B2 (Merck Sharp & Dohme Corp., priority 2013, dated 2017):
Read-outs that look alike come from different tables or passages of the source.

Assays:
[1] = target: Rhesus PDE2A3 (Macaca mulatta, UniProt B3VTJ2); assay: PDE2 fluorescence polarization (IMAP FP) inhibition assay, rhesus enzyme; format: biochemical, rhesus macaque
Procedure, shortened: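 Rhesus PDE2A3 came from lysate of transiently transfected AD293 cells, diluted to give 20% substrate conversion. Substrate was 50 nM FAM-cAMP with 1 uM cGMP activator in Tris pH 7.2/MgCl2 buffer, run 60 min at room temperature over 10-point 3-fold dilutions in 1% DMSO. Read-out was IMAP fluorescence polarization (mP) after ≥1 h binding.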

[2] = target: human PDE2A1 (Homo sapiens (Human), UniProt O00408); assay: IMAP FP PDE selectivity panel, human PDE2A1; format: biochemical
Procedure, shortened: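 GST-tagged human PDE2A1 expressed in insect cells, run at room temperature for 60 min with 50 nM FAM-cAMP containing 1000 nM cGMP, pH 7.2 Tris/MgCl2 buffer. IMAP fluorescence polarization read after binding step.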

[3] = Rhesus PDE2, Lab A, read-out: Rhesus PDE2 Ki (nM) - Lab A
[4] = Human PDE2, Lab A, read-out: Human PDE2 Ki (nM) - Lab A
[5] = Rhesus PDE2, Lab B, read-out: Rhesus PDE2 Ki (nM) - Lab B
[6] = Human PDE2, Lab B, read-out: Human PDE2 Ki (nM) - Lab B

Rhesus PDE2A3, sequence (B3VTJ2 1-941): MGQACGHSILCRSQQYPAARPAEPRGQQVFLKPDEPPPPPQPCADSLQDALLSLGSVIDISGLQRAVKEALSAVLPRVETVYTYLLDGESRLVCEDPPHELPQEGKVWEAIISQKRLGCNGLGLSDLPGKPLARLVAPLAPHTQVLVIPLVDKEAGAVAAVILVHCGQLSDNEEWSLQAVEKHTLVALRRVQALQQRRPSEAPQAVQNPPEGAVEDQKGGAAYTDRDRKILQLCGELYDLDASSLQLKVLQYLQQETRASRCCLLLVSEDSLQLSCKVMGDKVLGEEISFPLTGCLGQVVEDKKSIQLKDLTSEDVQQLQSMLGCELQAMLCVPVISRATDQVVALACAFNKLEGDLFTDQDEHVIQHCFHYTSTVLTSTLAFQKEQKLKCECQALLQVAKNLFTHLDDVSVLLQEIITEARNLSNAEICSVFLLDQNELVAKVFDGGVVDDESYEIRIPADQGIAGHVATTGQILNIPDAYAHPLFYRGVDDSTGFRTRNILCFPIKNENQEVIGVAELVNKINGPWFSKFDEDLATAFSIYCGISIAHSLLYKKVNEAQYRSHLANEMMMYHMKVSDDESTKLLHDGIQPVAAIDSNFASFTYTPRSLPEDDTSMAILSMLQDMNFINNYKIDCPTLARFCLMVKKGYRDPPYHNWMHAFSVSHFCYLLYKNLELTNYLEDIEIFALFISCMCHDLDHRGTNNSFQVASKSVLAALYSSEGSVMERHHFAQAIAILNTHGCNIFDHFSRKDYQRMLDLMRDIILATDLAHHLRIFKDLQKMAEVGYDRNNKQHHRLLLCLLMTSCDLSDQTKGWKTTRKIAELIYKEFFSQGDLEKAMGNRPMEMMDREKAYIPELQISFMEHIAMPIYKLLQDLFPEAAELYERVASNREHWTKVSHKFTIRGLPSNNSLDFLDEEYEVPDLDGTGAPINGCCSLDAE
human PDE2A1, sequence (O00408 other isoform, or with tags, fused parts or gaps): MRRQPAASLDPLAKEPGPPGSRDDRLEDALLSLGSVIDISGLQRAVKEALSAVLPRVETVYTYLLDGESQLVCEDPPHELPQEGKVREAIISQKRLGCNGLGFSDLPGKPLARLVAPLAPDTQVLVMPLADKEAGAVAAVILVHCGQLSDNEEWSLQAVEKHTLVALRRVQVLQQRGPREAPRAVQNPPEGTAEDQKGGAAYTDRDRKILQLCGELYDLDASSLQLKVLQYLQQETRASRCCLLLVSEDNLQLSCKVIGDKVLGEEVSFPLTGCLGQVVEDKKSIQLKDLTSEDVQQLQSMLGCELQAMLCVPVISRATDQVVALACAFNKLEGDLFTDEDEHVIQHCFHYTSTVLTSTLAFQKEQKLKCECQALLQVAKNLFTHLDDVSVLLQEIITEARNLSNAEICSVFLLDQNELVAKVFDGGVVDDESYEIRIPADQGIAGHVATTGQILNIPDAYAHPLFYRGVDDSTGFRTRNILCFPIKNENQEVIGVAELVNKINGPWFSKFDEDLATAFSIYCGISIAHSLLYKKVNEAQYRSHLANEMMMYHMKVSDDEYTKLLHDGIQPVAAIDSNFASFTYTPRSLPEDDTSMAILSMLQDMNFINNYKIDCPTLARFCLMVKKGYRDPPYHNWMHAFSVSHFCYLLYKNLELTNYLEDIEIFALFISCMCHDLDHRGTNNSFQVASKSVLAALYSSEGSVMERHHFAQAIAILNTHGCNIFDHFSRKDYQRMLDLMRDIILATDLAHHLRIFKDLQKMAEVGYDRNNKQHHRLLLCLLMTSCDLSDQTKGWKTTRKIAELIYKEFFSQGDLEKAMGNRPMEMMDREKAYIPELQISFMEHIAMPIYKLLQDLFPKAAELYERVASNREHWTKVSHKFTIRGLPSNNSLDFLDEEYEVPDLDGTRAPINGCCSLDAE

Compound	Ki [1, 3] [nM]	Ki [2, 4] [nM]	Ki [1, 5] [nM]	Ki [2, 6] [nM]
CC[C@@H](NC(=O)c1cc(=O)[nH]c(C2CC2)n1)c1ccc(OC(F)(F)F)c(F)c1 [Example 207]	5.8	2.6		
CC[C@@H](NC(=O)c1cc(=O)[nH]c(C(C)(C)c2ccc(OC)cc2)n1)c1ccc(OC(F)(F)F)cc1 [Example 505, 2-[1-(4-methoxyphenyl)-1-methylethyl]-6-oxo-N-{(1R)-1-[4-(trifluoromethoxy)phenyl]propyl}-1,6-dihydropyrimidine-4-carboxamide]			84	56
CC[C@@H](NC(=O)c1cc(=O)[nH]c(C(C)(C)c2ccc(OC)cc2)n1)c1ccc(SC(F)(F)F)c(F)c1 [Example 496, N-[(1R)-1-{3-fluoro-4-[(trifluoromethyl)sulfanyl]phenyl}propyl]-2-[1-(4-methoxyphenyl)-1-methylethyl]-6-oxo-1,6-dihydropyrimidine-4-carboxamide]			38	40
O=C(NC(CO)c1ccc(C(F)(F)F)cc1)c1cc(=O)[nH]c(C2CC2)n1 (centres unmarked) [Example 294, 2-cyclopropyl-N-{2-hydroxy-1-[4-(trifluoromethyl)phenyl]ethyl}-6-oxo-1,6-dihydropyrimidine-4-carboxamide]	69	46		
Cc1nc(C(=O)N[C@H](C)c2ccc(CC(F)(F)F)cc2)cc(=O)[nH]1 [Example 45, 2-methyl-6-oxo-N-{(1R)-1-[4-(2,2,2-trifluoroethyl)phenyl]ethyl}-1,6-dihydropyrimidine-4-carboxamide]	52	35		
O=C(NC1(c2ccc(C(F)(F)F)cc2)COC1)c1cc(=O)[nH]c(-c2ccccc2)n1 [Example 402, 6-oxo-2-phenyl-N-{3-[4-(trifluoromethyl)phenyl]oxetan-3-yl}-1,6-dihydropyrimidine-4-carboxamide]			38	29
CC(C)(NC(=O)c1cc(=O)[nH]c(C2CC2)n1)c1ccc(S(F)(F)(F)(F)F)cc1 [Example 680, 2-cyclopropyl-N-{1-methyl-1-[4-(pentafluoro-λ^6-sulfanyl)phenyl]ethyl}-6-oxo-1,6-dihydropyrimidine-4-carboxamide]			80	87
COc1ccc(Cc2nc(C(=O)N[C@@H](c3ccc(C(F)(F)F)c(F)c3)C(C)(C)C)cc(=O)[nH]2)cc1F [Example 508, 2-(3-fluoro-4-methoxybenzyl)-N-{(1R)-1-[3-fluoro-4-(trifluoromethyl)phenyl]-2,2-dimethylpropyl}-6-oxo-1,6-dihydropyrimidine-4-carboxamide]			0.77	0.8
O=C(NC1(c2ccc(OC(F)(F)F)c(F)c2)CC1)c1cc(=O)[nH]c(C2CC2)n1 [Example 201]	4.4	2.8		
C[C@@H](NC(=O)c1cc(=O)[nH]c(-c2ccccc2)n1)c1ccc(OC(F)(F)F)c(F)c1 [Example 154, N-{(1R)-1-[3-fluoro-4-(trifluoromethoxy)phenyl]ethyl}-6-oxo-2-phenyl-1,6-dihydropyrimidine-4-carboxamide]	2.6	1.5		
Cc1nc(C(=O)N[C@@H](c2ccc(SC(F)(F)F)cc2)C(C)C)cc(=O)[nH]1 [Example 30, 2-methyl-N-[(1R)-2-methyl-1-{4-[(trifluoromethyl)sulfanyl]phenyl}propyl]-6-oxo-1,6-dihydropyrimidine-4-carboxamide]	3.2	2.2		
O=C(N[C@@H](c1ccc(S(F)(F)(F)(F)F)cc1)C1CC1)c1cc(=O)[nH]c(C2CC2)n1 [Example 397, 2-cyclopropyl-N-{(R)-cyclopropyl[4-(pentafluoro-λ^6-sulfanyl)phenyl]methyl}-6-oxo-1,6-dihydropyrimidine-4-carboxamide]			8.2	8.6
CC[C@@H](NC(=O)c1cc(=O)[nH]c(Cc2ccc(OC)c(F)c2)n1)c1ccc(S(F)(F)(F)(F)F)cc1 [Example 526, 2-(3-fluoro-4-methoxybenzyl)-6-oxo-N-{(1R)-1-[4-(pentafluoro-λ^6-sulfanyl)phenyl]propyl}-1,6-dihydropyrimidine-4-carboxamide]			4.1	3.9
CC(NC(=O)c1cc(=O)[nH]c(C2CC2)n1)c1ccc(C(F)(F)F)cc1Cl (centres unmarked) [Example 233, N-{1-[2-chloro-4-(trifluoromethyl)phenyl]ethyl}-2-cydopropyl-6-oxo-1,6-dihydropyrimidine-4-carboxamide]	124	78		
CC(C)(C)[C@@H](NC(=O)c1cc(=O)[nH]c(C2CC2)n1)c1ccc(C(F)(F)F)cc1F [Example 445, 2-cyclopropyl-N-{(1R)-1-[2-fluoro-4-(trifluoromethyl)phenyl]-2,2-dimethylpropyl}-6-oxo-1,6-dihydropyrimidine-4-carboxamide]			2.1	1.7
CC(C)[C@@H](NC(=O)c1cc(=O)[nH]c(C2CC2)n1)c1ccc(S(F)(F)(F)(F)F)cc1 [Example 247, 2-cyclopropyl-N-{(1R)-2-methyl-1-[4-(pentafluoro-λ^6-sulfanyl)phenyl]propyl}-6-oxo-1,6-dihydropyrimidine-4-carboxamide]	1.7		2.5	2.7
C[C@@H](NC(=O)c1cc(=O)[nH]c(-c2ccccc2)n1)c1ccc(C(F)(F)F)cc1 [Example 274, 6-oxo-2-phenyl-N-{(1R)-1-[4-(trifluoromethyl)phenyl]ethyl}-1,6-dihydropyrimidine-4-carboxamide]	6.7	6.7		
COc1ccc(C(C)(C)c2nc(C(=O)N[C@@H](c3ccc(OC(F)(F)F)cc3)C(C)C)cc(=O)[nH]2)cc1 [Example 494, 2-[1-(4-methoxyphenyl)-1-methylethyl]-N-{(1R)-2-methyl-1-[4-(trifluoromethoxy)phenyl]propyl}-6-oxo-1,6-dihydropyrimidine-4-carboxamide]			54	46
CCc1nc(C(=O)N[C@H](C)c2ccc(C(F)(F)F)cc2)cc(=O)[nH]1 [Example 134, 2-ethyl-6-oxo-N-{(1R)-1-[4-(trifluoromethyl)phenyl]ethyl}-1,6-dihydropyrimidine-4-carboxamide]	54	43		38
CC[C@@H](NC(=O)c1cc(=O)[nH]c(Cc2ccc(OC)cc2)n1)c1ccc(C(F)(F)F)c(F)c1 [Example 483, N-{(1R)-1-[3-fluoro-4-(trifluoromethyl)phenyl]propyl}-2-(4-methoxybenzyl)-6-oxo-1,6-dihydropyrimidine-4-carboxamide]			3	2.9
CC(NC(=O)c1cc(=O)[nH]c(-c2ccccc2)n1)c1ccc(C(C)(C)C)cc1 (centres unmarked) [Example 391, N-[1-(4-tert-butylphenyl)ethyl]-6-oxo-2-phenyl-1,6-dihydropyrimidine-4-carboxamide]			65	40
CC[C@@H](NC(=O)c1cc(=O)[nH]c(Cc2ccc(OC)cc2)n1)c1ccc(S(F)(F)(F)(F)F)cc1 [Example 482, 2-(4-methoxybenzyl)-6-oxo-N-{(1R)-1-[4-(pentafluoro-λ^6-sulfanyl)phenyl]propyl}-1,6-dihydropyrimidine-4-carboxamide]			3.3	3.4
C[C@@H](NC(=O)c1cc(=O)[nH]c(-c2ncccn2)n1)c1ccc(OC(F)(F)F)cc1 [Example 283, 6-oxo-N-{(1R)-1-[4-(trifluoromethoxy)phenyl]ethyl}-1,6-dihydro-2,2′-bipyrimidine-4-carboxamide]	8.7	6		
O=C(NCc1ccc(-c2ccccc2)cc1)c1cc(=O)[nH]c(-c2ccccc2)n1 [Example 372, N-(biphenyl-4-ylmethyl)-6-oxo-2-phenyl-1,6-dihydropyrimidine-4-carboxamide]	~149			~661
O=C(NC1(c2ccc(OC(F)(F)F)c(F)c2)CC1)c1cc(=O)[nH]c(-c2ncccn2)n1 [Example 81, N-{1-[3-fluoro-4-(trifluoromethoxy)phenyl]cyclopropyl}-6-oxo-1,6-dihydro-2,2′-bipyrimidine-4-carboxamide]	23		17	25
CC(C)(NC(=O)c1cc(=O)[nH]c(-c2ncccn2)n1)c1ccc(C(F)(F)F)cc1 [Example 288, N-{1-methyl-1-[4-(trifluoromethyl)phenyl]ethyl}-6-oxo-1,6-dihydro-2,2′-bipyrimidine-4-carboxamide]	152	123		
O=C(NC1(c2ccc(SC(F)(F)F)c(F)c2)CC1)c1cc(=O)[nH]c(-c2ccccc2)n1 [Example 352, N-(1-{3-fluoro-4-[(trifluoromethyl)sulfanyl]phenyl}cyclopropyl)-6-oxo-2-phenyl-1,6-dihydropyrimidine-4-carboxamide]	15		51	54
O=C(NC1(c2ccc(C(F)(F)F)cc2)CCCC1)c1cc(=O)[nH]c(C2CC2)n1 [Example 197, 2-cyclopropyl-6-oxo-N-{1-[4-(trifluoromethyl)phenyl]cyclopentyl}-1,6-dihydropyrimidine-4-carboxamide]	62	29		
COc1ccc(Cc2nc(C(=O)N[C@@H](c3ccc(OC(F)(F)F)cc3)C3CC3)cc(=O)[nH]2)cc1F [Example 524, N-{(R)-cyclopropyl[4-(trifluoromethoxy)phenyl]methyl}-2-(3-fluoro-4-methoxybenzyl)-6-oxo-1,6-dihydropyrimidine-4-carboxamide]			2.1	2.1
